What follows are compounds tested on neutrophils (assay: Neutrophil calcium flux assay (5-OXO-ETE-stimulated, Indo-1 fluorescence)). Settings: 5-OXO-ETE-stimulated calcium flux.
Type: cell-based
Outline: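 Indo-1-loaded neutrophils (5×10^6 cells/ml, 30 min at 37 °C) in HBSS with Ca/Mg and HEPES, pre-incubated 5 min with antagonist or buffer. Stimulated with 5-OXO-ETE added at 200 nM (4× stock); fluorescence (ex 331/em 410 nm) read every 5 s for 30 cycles, expressed as net fluorescence.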

Structure (SMILES) | IC50
C[C@H](CC(=O)O)CC(=O)c1c(CCCCOCc2ccc(F)cc2)n(C)c2ncc(C#N)cc12 [Compound I-368] | 100 to 300 nM

Same assay, conditions: Neutrophil, 5-OXO-ETE-stimulated calcium flux

Structure (SMILES) | IC50
Cn1c(CCCCCCc2cccc(Cl)c2)c(C(=O)N2CC[C@H](C(=O)NS(C)(=O)=O)C2)c2cc(C#N)cnc21 [Compound I-361] | > 300 nM
CC(CC(=O)NS(C)(=O)=O)CC(=O)c1c(CCCCOCc2ccccc2)n(C)c2ncc(C#N)cc12 (stereo not drawn) [Compound I-362] | > 300 nM
Cn1c(CCCCCCC#CC2CC(F)(F)C2)c(C(=O)N2CC[C@H](C(=O)NS(C)(=O)=O)C2)c2cc(C#N)cnc21 [Compound I-363] | > 300 nM
Cn1c(CCCCCCC#CC2CC(F)(F)C2)c(C(=O)N2CC[C@H](C(=O)NS(=O)(=O)C(F)(F)F)C2)c2cc(C#N)cnc21 [Compound I-364] | > 300 nM
CC(CC(=O)O)CC(=O)c1c2cc(C#N)cnc2n(C)c1[C@H]1CC[C@H](OCc2cccc(Cl)c2)CC1 (stereo partly drawn) [Compound I-367] | > 300 nM
C[C@@H](CC(=O)O)CC(=O)c1c(CCCCOCc2ccc(F)cc2)n(C)c2ncc(C#N)cc12 [Compound I-369] | > 300 nM
CC(CC(=O)O)CC(=O)c1c(CCCCOCc2cccc(C(=O)N(C)C)c2)n(C)c2ncc(C#N)cc12 (stereo not drawn) [Compound I-370] | < 100 nM
C[C@H](CC(=O)O)CC(=O)c1c(CCCCCCc2cncs2)n(C)c2ncc(C#N)cc12 [Compound I-371] | < 100 nM
C[C@@H](CC(=O)O)CC(=O)c1c(CCCCCCc2cncs2)n(C)c2ncc(C#N)cc12 [Compound I-372] | > 300 nM
CC(CC(=O)O)CC(=O)c1c(CCCCCCc2cscn2)n(C)c2ncc(C#N)cc12 (stereo not drawn) [Compound I-373] | 100 to 300 nM
CC(CC(=O)O)CC(=O)c1c(CCCCOCc2cccc(Cl)c2)n(C)c2ncc(CN(C)C)cc12 (stereo not drawn) [Compound I-375] | > 300 nM
CC(CC(=O)O)CC(=O)c1c(CCCCOCc2cccc(Cl)c2)n(C[C@@H](O)CO)c2ncc(Cl)cc12 (stereo partly drawn) [Compound I-376] | > 300 nM
CC(CC(=O)O)CC(=O)c1c(CCCCOCc2cccc(Cl)c2)n(CCO)c2ncc(C#N)cc12 (stereo not drawn) [Compound I-377] | > 300 nM
CC(CC(=O)O)CC(=O)c1c(CCCCOCc2cccc(Cl)c2)n(CCO)c2ncc(Cl)cc12 (stereo not drawn) [Compound I-378] | > 300 nM
CC(CC(=O)O)CC(=O)c1c(CCCCOCc2cccc(Cl)c2)n(C)c2nccc(Cl)c12 (stereo not drawn) [Compound I-379] | > 300 nM
Cc1nc2c(cc1C#N)c(C(=O)CC(C)CC(=O)O)c(CCCCOCc1cccc(Cl)c1)n2C (stereo not drawn) [Compound I-381] | > 300 nM
C[C@H](CC(=O)O)CC(=O)c1c(CCCCOCc2cccc(Cl)c2)[nH]c2ccc(C#N)cc12 [Compound I-382] | < 100 nM
C[C@H](CC(=O)O)CC(=O)c1c(CCCCOCc2cccc(C#N)c2)n(C)c2ncc(C#N)cc12 [Compound I-383] | < 100 nM
C[C@@H](CC(=O)O)CC(=O)c1c(CCCCOCc2cccc(C#N)c2)n(C)c2ncc(C#N)cc12 [Compound I-384] | > 300 nM
C[C@H](CC(=O)O)CC(=O)c1c(CCCCOCc2cc(Cl)cc(Cl)c2)n(C)c2ncc(C#N)cc12 [Compound I-385] | < 100 nM
C[C@@H](CC(=O)O)CC(=O)c1c(CCCCOCc2cc(Cl)cc(Cl)c2)n(C)c2ncc(C#N)cc12 [Compound I-386] | 100 to 300 nM
CC(CC(=O)O)CC(=O)c1c(CCCCOCc2cc(F)cc(F)c2)n(C)c2ncc(C#N)cc12 (stereo not drawn) [Compound I-387] | 100 to 300 nM
CC(CC(=O)O)CC(=O)c1c(CCCCOCc2cncnc2)n(C)c2ncc(C#N)cc12 (stereo not drawn) [Compound I-388] | > 300 nM

Structure (SMILES) | IC50
C[C@H](CC(=O)O)CC(=O)c1c(CCCCOCc2cccc(OC(F)(F)F)c2)n(C)c2ncc(C#N)cc12 [Compound I-389] | < 100 nM
C[C@@H](CC(=O)O)CC(=O)c1c(CCCCOCc2cccc(OC(F)(F)F)c2)n(C)c2ncc(C#N)cc12 [Compound I-390] | > 300 nM
COc1cc(COCCCCc2c(C(=O)CC(C)CC(=O)O)c3cc(C#N)cnc3n2C)ccc1F (stereo not drawn) [Compound I-391] | < 100 nM
CC(CC(=O)O)CC(=O)c1c(CCCCOCc2cccc(C#N)c2)n(C)c2ncccc12 (stereo not drawn) [Compound I-392] | 100 to 300 nM
CC(CC(=O)O)CC(=O)c1c(CCCCOCc2cncnc2)n(C)c2ccc(C#N)cc12 (stereo not drawn) [Compound I-393] | > 300 nM
C[C@H](CC(=O)O)CC(=O)c1c(CCCCOCc2cccc(C#N)c2)n(C)c2cnccc12 [Compound I-394] | < 100 nM
C[C@@H](CC(=O)O)CC(=O)c1c(CCCCOCc2cccc(C#N)c2)n(C)c2cnccc12 [Compound I-395] | > 300 nM
C[C@H](CC(=O)O)CC(=O)c1c(CCCCOCc2cccc(C#N)c2)n(C)c2ccncc12 [Compound I-396] | < 100 nM
C[C@@H](CC(=O)O)CC(=O)c1c(CCCCOCc2cccc(C#N)c2)n(C)c2ccncc12 [Compound I-397] | > 300 nM
CC(CC(=O)O)CC(=O)c1c(CCCCOCc2cccc(C#N)c2)n(C)c2cccnc12 (stereo not drawn) [Compound I-398] | > 300 nM
CC(CC(=O)O)CC(=O)c1c(C[C@H]2CC[C@@H](OCc3cccc(Cl)c3)CC2)n(C)c2ncc(C#N)cc12 (stereo partly drawn) [Compound I-399] | > 300 nM
CC(CC(=O)O)CC(=O)c1c2cc(C#N)cnc2n(C)c1[C@H]1CC[C@@H](COCc2cccc(Cl)c2)CC1 (stereo partly drawn) [Compound I-400] | > 300 nM
CC(CC(=O)O)CC(=O)c1c2cc(C#N)cnc2n(C)c1[C@H]1CC[C@H](COCc2cccc(Cl)c2)CC1 (stereo partly drawn) [Compound I-401] | > 300 nM
CC(CC(=O)O)CC(=O)c1c(C[C@H]2CC[C@H](OCc3cccc(Cl)c3)CC2)n(C)c2ncc(C#N)cc12 (stereo partly drawn) [Compound I-402] | 100 to 300 nM
COc1cccc(COCCCCc2c(C(=O)CC(C)CC(=O)O)c3cc(Cl)cnc3n2C)c1 (stereo not drawn) [Compound I-403] | 100 to 300 nM
C[C@H](CC(=O)O)CC(=O)c1c(CCCCOCc2cccc(C#N)c2)n(C)c2cnc(Cl)cc12 [Compound I-404] | < 100 nM
C[C@@H](CC(=O)O)CC(=O)c1c(CCCCOCc2cccc(C#N)c2)n(C)c2cnc(Cl)cc12 [Compound I-405] | > 300 nM
C[C@@H](CC(=O)O)CC(=O)c1c(CCCCOCc2cccc(Cl)c2)n(C)c2cnccc12 [Compound I-406] | > 300 nM
C[C@H](CC(=O)O)CC(=O)c1c(CCCCOCc2cccc(Cl)c2)n(C)c2cnccc12 [Compound I-407] | < 100 nM
C[C@H](CC(=O)O)CC(=O)c1c(CCCCOCc2cccc(OC(F)(F)F)c2)n(C)c2cnccc12 [Compound I-408] | < 100 nM
C[C@@H](CC(=O)O)CC(=O)c1c(CCCCOCc2cccc(OC(F)(F)F)c2)n(C)c2cnccc12 [Compound I-409] | > 300 nM
C[C@H](CC(=O)O)CC(=O)c1c(CCCCOCc2cccc(Cl)c2)n(C)c2cnc(Cl)cc12 [Compound I-410] | < 100 nM
C[C@@H](CC(=O)O)CC(=O)c1c(CCCCOCc2cccc(Cl)c2)n(C)c2cnc(Cl)cc12 [Compound I-411] | > 300 nM

Structure (SMILES) | IC50
CC(CC(=O)O)CC(=O)c1c(CCCCOCc2cccc(OC(F)(F)F)c2)n(C)c2cnc(Cl)cc12 (stereo not drawn) [Compound I-412] | < 100 nM
C[C@H](CC(=O)O)CC(=O)c1c(CCCCOCc2cccc(C#N)c2)n(C)c2cc(F)ccc12 [Compound I-413] | < 100 nM
CC(CC(=O)O)CC(=O)c1c(CCCCOCc2cccc(C#N)c2)n(C)c2c(F)cc(C#N)cc12 (stereo not drawn) [Compound I-414] | > 300 nM
C[C@H](CC(=O)O)CC(=O)c1c(CCCCOCc2cccc(C#N)c2)n(C)c2c(F)cc(Cl)cc12 [Compound I-415] | > 300 nM
C[C@H](CC(=O)O)CC(=O)c1c(CCCCOCc2cccc(C#N)c2)n(C)c2ncc(F)cc12 [Compound I-416] | 100 to 300 nM
CC(CC(=O)O)CC(=O)c1c(CCCCOCc2cccc(C#N)c2)n(C)c2ncc(C(F)(F)F)cc12 (stereo not drawn) [Compound I-417] | 100 to 300 nM
C[C@H](CC(=O)O)CC(=O)c1c(CCCCOCc2cccc(C#N)c2)n(C)c2nc(F)c(Cl)cc12 [Compound I-418] | < 100 nM
COc1cccc(CCCCC#Cc2c(C(=O)CC(C)CC(=O)O)c3cc(C#N)cnc3n2C)c1 (stereo not drawn) [Compound I-419] | > 300 nM
[2H]C([2H])([2H])n1c(CCCCOCc2ccccc2)c(C(=O)CC(C)CC(=O)O)c2cc(C#N)cnc21 (stereo not drawn) [Compound I-420] | < 100 nM
[2H]C([2H])([2H])n1c(CCCCOCc2cccc(Cl)c2)c(C(=O)C[C@H](C)CC(=O)O)c2cc(C#N)ccc21 [Compound I-421] | < 100 nM
C[C@H](CC(=O)O)CC(=O)c1c(CCCCCOCc2ccccc2)n(C)c2ncc(C#N)cc12 [Compound I-422] | 100 to 300 nM
C[C@@H](CC(=O)O)CC(=O)c1c(CCCCCOCc2ccccc2)n(C)c2ncc(C#N)cc12 [Compound I-423] | > 300 nM
CC(CC(=O)O)CC(=O)c1c(CCCCOCCc2ccccc2)n(C)c2ncc(C#N)cc12 (stereo not drawn) [Compound I-424] | > 300 nM
C[C@H](CC(=O)O)CC(=O)c1c(CCCCCOCc2cccc(Cl)c2)n(C)c2ccc(C#N)cc12 [Compound I-425] | 100 to 300 nM
CC(CC(=O)O)CC(=O)c1c(CCCCSCc2ccccc2)n(C)c2ncc(C#N)cc12 (stereo not drawn) [Compound I-426] | > 300 nM
CC(CC(=O)O)CC(=O)c1c(CCCC[S+]([O-])Cc2ccccc2)n(C)c2ncc(C#N)cc12 (stereo not drawn) [Compound I-427] | > 300 nM
CC(CC(=O)O)CC(=O)c1c(CCCCS(=O)(=O)Cc2ccccc2)n(C)c2ncc(C#N)cc12 (stereo not drawn) [Compound I-428] | > 300 nM
CC(CC(=O)O)CC(=O)c1c(CCCCO)n(C)c2ncc(C#N)cc12 (stereo not drawn) [Compound I-429] | > 300 nM
CC(CC(=O)O)CC(=O)c1c(CCCOCC(F)(F)c2cccc(Cl)c2)n(C)c2ccc(Cl)cc12 (stereo not drawn) [Compound I-430] | < 100 nM
C[C@@H](CC(=O)O)CC(=O)c1c(CCCCO[C@@H](C)c2ccccc2)n(C)c2ncc(C#N)cc12 [Compound I-431] | > 300 nM
C[C@H](CC(=O)O)CC(=O)c1c(CCCCO[C@@H](C)c2ccccc2)n(C)c2ncc(C#N)cc12 [Compound I-432] | < 100 nM
C[C@@H](CC(=O)O)CC(=O)c1c(CCCCO[C@H](C)c2ccccc2)n(C)c2ncc(C#N)cc12 [Compound I-433] | > 300 nM
